# US11377441B2, “Covalent inhibitors of KRAS” (Araxes Pharma LLC, priority 2017, dated 2022)
# Biological target: T1, KRAS G12C 1-169, his-tagged protein, GDP-loaded (Homo sapiens, UniProt P01116, G12C)
# T1 construct: KRAS G12C 1-169, his-tagged protein, GDP-loaded
# Experiment: Biochemical assay: covalent modification of KRAS G12C measured by mass spectrometry (RapidFire/TOF or Q-Exactive)
# Format: binding
# Settings: covalent binding to (modification of) KRAS G12C after a ten minute incubation period
# Outline: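 GDP-loaded KRAS G12C 1-169 (his-tagged) at 2 μM or 0.5 μM in 20 mM Hepes, 150 mM NaCl, 1 mM MgCl2, incubated with compound at 100, 30 or 10 μM at room temperature for 10 min, 30 min, 2 h or 24 h, then quenched with formic acid. Intact-protein LC-MS, deconvolved; percent modification from modified versus unmodified protein.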
row,SMILES,Binding %
1,"C=CC(=O)N1C[C@H](C)N(c2nc(N3CC(N(C)C)C3)nc3c(F)c(-c4c(C)ccc5[nH]nc(C6CC6)c45)c(Cl)cc23)C[C@H]1C [Compound 57, 1-((2R,5S)-4-(6-chloro-7-(3-cyclopropyl-5-methyl-1H-indazol-4-yl)-2-(3-(dimethylamino)azetidin-1-yl)-8-fluoroquinazolin-4-yl)-2,5-dimethylpiperazin-1-yl)prop-2-en-1-one]",+++ (+++ indicates binding activity greater than 80%)
2,"C=CC(=O)N1C[C@H](C)N(c2nc(N3CC(N(C)C)C3)nc3c(F)c(-c4c(F)ccc5cnn(C)c45)c(Cl)cc23)C[C@H]1C (atropisomer, axis not shown) [Compound 155, 1-((2R,5S)-4-((R)-6-chloro-2-(3-(dimethylamino)azetidin-1-yl)-8-fluoro-7-(6-fluoro-1-methyl-1H-indazol-7-yl)quinazolin-4-yl)-2,5-dimethylpiperazin-1-yl)prop-2-en-1-one]",+ (+ indicates binding activity greater than 0% and up to 50%)
3,"C=CC(=O)N1C[C@H](C)N(c2nc(OC[C@H]3CN(C)CCO3)nc3c(F)c(-c4c(C)ccc5[nH]nc(C)c45)c(Cl)cc23)C[C@H]1C [Compound 190, 1-((2R,5S)-4-(6-chloro-7-(3,5-dimethyl-1H-indazol-4-yl)-8-fluoro-2-(((R)-4-methylmorpholin-2-yl)methoxy)quinazolin-4-yl)-2,5-dimethylpiperazin-1-yl)prop-2-en-1-one]",+++ (+++ indicates binding activity greater than 80%)
4,"C=CC(=O)N1C[C@H](C)N(c2nc(N3CC(N(C)C)C3)nc3c(F)c(-c4c(C)ccc5[nH]nc(C6CC6)c45)c(Cl)cc23)C[C@@H]1C (atropisomer, axis not shown) [Compound 254, 1-((2S,5S)-4-((S)-6-chloro-7-(3-cyclopropyl-5-methyl-1H-indazol-4-yl)-2-(3-(dimethylamino)azetidin-1-yl)-8-fluoroquinazolin-4-yl)-2,5-dimethylpiperazin-1-yl)prop-2-en-1-one]",+ (+ indicates binding activity greater than 0% and up to 50%)
5,"C=CC(=O)N1C[C@@H](C)N(c2nc(N3CC(N(C)C)C3)nc3c(F)c(-c4c(C)ccc5[nH]nc(C6CC6)c45)c(Cl)cc23)C[C@@H]1C (atropisomer, axis not shown) [Compound 253, 1-((2S,5R)-4-((R)-6-chloro-7-(3-cyclopropyl-5-methyl-1H-indazol-4-yl)-2-(3-(dimethylamino)azetidin-1-yl)-8-fluoroquinazolin-4-yl)-2,5-dimethylpiperazin-1-yl)prop-2-en-1-one]",+ (+ indicates binding activity greater than 0% and up to 50%)
6,"C=CC(=O)N1C[C@H](C)N(c2nc(N3CC(N(C)C)C3)nc3c(F)c(-c4c(C)ccc5nn(C)cc45)c(Cl)cc23)C[C@H]1C (atropisomer, axis not shown) [Compound 88, 1-((2R,5S)-4-((R)-6-chloro-7-(2,5-dimethyl-2H-indazol-4-yl)-2-(3-(dimethylamino)azetidin-1-yl)-8-fluoroquinazolin-4-yl)-2,5-dimethylpiperazin-1-yl)prop-2-en-1-one]",++ (++ indicates binding activity from 50 to 80%)
7,"C=CC(=O)N1C[C@H](C)N(c2nc(OCCN3CCC(F)(F)C3)nc3c(F)c(-c4c(C)ccc5[nH]nc(N)c45)c(Cl)cc23)C[C@H]1C (atropisomer, axis not shown) [Compound 67, 1-((2R,5S)-4-((R)-7-(3-amino-5-methyl-1H-indazol-4-yl)-6-chloro-2-(2-(3,3-difluoropyrrolidin-1-yl)ethoxy)-8-fluoroquinazolin-4-yl)-2,5-dimethylpiperazin-1-yl)prop-2-en-1-one]",+++ (+++ indicates binding activity greater than 80%)
8,"[2H]C([2H])([2H])N(C1CN(c2nc(N3C[C@@H](C)N(C(=O)C=C)C[C@@H]3C)c3cc(Cl)c(-c4c(C)ccc5[nH]nc(C)c45)c(F)c3n2)C1)C([2H])([2H])[2H] (atropisomer, axis not shown) [Compound 222, 1-((2R,5S)-4-((S)-6-chloro-7-(3,5-dimethyl-1H-indazol-4-yl)-2-(3-(di-perdeuteromethylamino)azetidin-1-yl)-8-fluoroquinazolin-4-yl)-2,5-dimethylpiperazin-1-yl)prop-2-en-1-one]",+ (+ indicates binding activity greater than 0% and up to 50%)
9,"C=CC(=O)N1C[C@H](C)N(c2nc(N3CC(N(C)C)C3)nc3c(F)c(-c4c(C)ccc5[nH]nc(CC)c45)c(Cl)cc23)C[C@H]1C [Compound 61, 1-((2R,5S)-4-(6-chloro-2-(3-(dimethylamino)azetidin-1-yl)-7-(3-ethyl-5-methyl-1H-indazol-4-yl)-8-fluoroquinazolin-4-yl)-2,5-dimethylpiperazin-1-yl)prop-2-en-1-one]",+++ (+++ indicates binding activity greater than 80%)
10,"C=CC(=O)N1C[C@H](C)N(c2nc(NCCN3CCOCC3)nc3c(F)c(-c4c(C)ccc5[nH]nc(N)c45)c(Cl)cc23)C[C@H]1C [Compound 79, 1-((2R,5S)-4-(7-(3-amino-5-methyl-1H-indazol-4-yl)-6-chloro-8-fluoro-2-(2-morpholinoethylamino)quinazolin-4-yl)-2,5-dimethylpiperazin-1-yl)prop-2-en-1-one]",+++ (+++ indicates binding activity greater than 80%)
11,"[2H]C([2H])([2H])N(C1CN(c2nc(N3C[C@@H](C)N(C(=O)C=C)C[C@@H]3C)c3cc(Cl)c(-c4c(C)ccc5cnn(C6CC6)c45)c(F)c3n2)C1)C([2H])([2H])[2H] [Compound 213, 1-((2R,5S)-4-((S)-6-chloro-7-(1-cyclopropyl-6-methyl-1H-indazol-7-yl)-2-(3-(di-perdeuteromethylamino)azetidin-1-yl)-8-fluoroquinazolin-4-yl)-2,5-dimethylpiperazin-1-yl)prop-2-en-1-one]",+ (+ indicates binding activity greater than 0% and up to 50%)
12,"C=CC(=O)N1[C@H](C)CN(c2nc(N3CC(N(C)C)C3)nc3c(F)c(-c4c(C)ccc5[nH]nc(C6CC6)c45)c(Cl)cc23)C[C@@H]1C (atropisomer, axis not shown) [Compound 133, 1-((2S,6R)-4-((S)-6-chloro-7-(3-cyclopropyl-5-methyl-1H-indazol-4-yl)-2-(3-(dimethylamino)azetidin-1-yl)-8-fluoroquinazolin-4-yl)-2,6-dimethylpiperazin-1-yl)prop-2-en-1-one]",+ (+ indicates binding activity greater than 0% and up to 50%)
13,"C=CC(=O)N1C[C@H](C)N(c2nc(N3CC(NC)C3)nc3c(F)c(-c4c(C)ccc5cnn(C)c45)c(Cl)cc23)C[C@H]1C (atropisomer, axis not shown) [Compound 139, 1-((2R,5S)-4-((S)-6-chloro-7-(1,6-dimethyl-1H-indazol-7-yl)-8-fluoro-2-(3-(methylamino)azetidin-1-yl)quinazolin-4-yl)-2,5-dimethylpiperazin-1-yl)prop-2-en-1-one]",+ (+ indicates binding activity greater than 0% and up to 50%)
14,"C=CC(=O)N1C[C@H](C)N(c2nc(OC[C@@H]3COCCN3C)nc3c(F)c(-c4c(C)ccc5[nH]nc(C)c45)c(Cl)cc23)C[C@H]1C [Compound 184, 1-((2R,5S)-4-(6-chloro-7-(3,5-dimethyl-1H-indazol-4-yl)-8-fluoro-2-(((S)-4-methylmorpholin-3-yl)methoxy)quinazolin-4-yl)-2,5-dimethylpiperazin-1-yl)prop-2-en-1-one]",+++ (+++ indicates binding activity greater than 80%)
15,"C=CC(=O)N1C[C@H](C)N(c2nc(O[C@H](C)CN(C)C)nc3c(F)c(-c4c(C)ccc5cnn(C)c45)c(Cl)cc23)C[C@H]1C [Compound 230, 1-((2R,5S)-4-(6-chloro-7-(1,6-dimethyl-1H-indazol-7-yl)-2-((R)-1-(dimethylamino)propan-2-yloxy)-8-fluoroquinazolin-4-yl)-2,5-dimethylpiperazin-1-yl)prop-2-en-1-one]",++ (++ indicates binding activity from 50 to 80%)
16,"C=CC(=O)N1C[C@H](C)N(c2nc(N3CC(N(C)C)C3)nc3c(F)c(-c4cccc5[nH]ncc45)c(Cl)cc23)C[C@H]1C [Compound 1, 1-((2R,5S)-4-(6-chloro-2-(3-(dimethylamino)azetidin-1-yl)-8-fluoro-7-(1H-indazol-4-yl)quinazolin-4-yl)-2,5-dimethylpiperazin-1-yl)prop-2-en-1-one]",++ (++ indicates binding activity from 50 to 80%)
17,"C=CC(=O)N1C[C@H](C)N(c2nc(N3CC(N(C)C)C3)nc3c(F)c(-c4c(C)ccc5[nH]nc(C6CC6)c45)c(C(F)(F)F)cc23)C[C@H]1C [Compound 193, 1-((2R,5S)-4-(7-(3-cyclopropyl-5-methyl-1H-indazol-4-yl)-2-(3-(dimethylamino)azetidin-1-yl)-8-fluoro-6-(trifluoromethyl)quina-zolin-4-yl)-2,5-dimethylpiperazin-1-yl)prop-2-en-1-one]",+++ (+++ indicates binding activity greater than 80%)
18,"C=CC(=O)N1C[C@H](C)N(c2nc(OC[C@@H]3CCCN3C)nc3c(F)c(-c4c(C)ccc5[nH]nc(C)c45)c(Cl)cc23)C[C@H]1C [Compound 185, 1-((2R,5S)-4-(6-chloro-7-(3,5-dimethyl-1H-indazol-4-yl)-8-fluoro-2-(((S)-1-methylpyrrolidin-2-yl)methoxy)quinazolin-4-yl)-2,5-dimethylpiperazin-1-yl)prop-2-en-1-one]",+++ (+++ indicates binding activity greater than 80%)
19,"C=CC(=O)N1C[C@H](C)N(c2nc(NCCCN3CCOCC3)nc3c(F)c(-c4c(C)ccc5[nH]nc(N)c45)c(Cl)cc23)C[C@H]1C [Compound 72, 1-((2R,5S)-4-(7-(3-amino-5-methyl-1H-indazol-4-yl)-6-chloro-8-fluoro-2-(3-morpholinopropylami-no)quinazolin-4-yl)-2,5-dimethylpiperazin-1-yl)prop-2-en-1-one]",+++ (+++ indicates binding activity greater than 80%)
